Test results from article PMC5012888, “Structure-based identification and characterisation of structurally novel human P2X7 receptor antagonists” (Biochemical Pharmacology, 2016).

Assays:
hP2X7R [1] = biological target: T1, hP2X7R (Homo sapiens, UniProt Q99572); conditions: known hP2X7R antagonists; cited from earlier work
T1 construct: expressed in transfected cells
T1 sequence (Q99572 1-595): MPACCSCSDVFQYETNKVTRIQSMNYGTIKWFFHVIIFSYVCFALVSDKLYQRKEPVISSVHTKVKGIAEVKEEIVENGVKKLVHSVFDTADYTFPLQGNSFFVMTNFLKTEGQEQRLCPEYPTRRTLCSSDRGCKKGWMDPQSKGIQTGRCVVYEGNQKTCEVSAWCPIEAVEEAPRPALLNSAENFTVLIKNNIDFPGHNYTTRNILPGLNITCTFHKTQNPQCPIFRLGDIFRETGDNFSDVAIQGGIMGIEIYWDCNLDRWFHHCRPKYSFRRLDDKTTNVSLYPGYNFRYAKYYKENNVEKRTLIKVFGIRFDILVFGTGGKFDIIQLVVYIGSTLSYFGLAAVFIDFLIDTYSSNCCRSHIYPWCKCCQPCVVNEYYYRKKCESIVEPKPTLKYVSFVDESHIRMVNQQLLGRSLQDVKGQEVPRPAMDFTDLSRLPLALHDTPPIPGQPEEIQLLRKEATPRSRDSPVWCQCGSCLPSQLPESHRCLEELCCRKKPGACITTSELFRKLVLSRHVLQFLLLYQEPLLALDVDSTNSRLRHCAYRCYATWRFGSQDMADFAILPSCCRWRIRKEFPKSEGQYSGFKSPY

rP2X7R = biological target: T2, rP2X7R (Rattus norvegicus, UniProt Q64663); assay: BzATP-induced Ca2+ responses in HEK293 cells expressing rP2X7R (FlexStation, Fura-2); type: cell-based; conditions: 300 μM BzATP
T2 construct: expressed in transfected cells
T2 sequence (Q64663 1-595): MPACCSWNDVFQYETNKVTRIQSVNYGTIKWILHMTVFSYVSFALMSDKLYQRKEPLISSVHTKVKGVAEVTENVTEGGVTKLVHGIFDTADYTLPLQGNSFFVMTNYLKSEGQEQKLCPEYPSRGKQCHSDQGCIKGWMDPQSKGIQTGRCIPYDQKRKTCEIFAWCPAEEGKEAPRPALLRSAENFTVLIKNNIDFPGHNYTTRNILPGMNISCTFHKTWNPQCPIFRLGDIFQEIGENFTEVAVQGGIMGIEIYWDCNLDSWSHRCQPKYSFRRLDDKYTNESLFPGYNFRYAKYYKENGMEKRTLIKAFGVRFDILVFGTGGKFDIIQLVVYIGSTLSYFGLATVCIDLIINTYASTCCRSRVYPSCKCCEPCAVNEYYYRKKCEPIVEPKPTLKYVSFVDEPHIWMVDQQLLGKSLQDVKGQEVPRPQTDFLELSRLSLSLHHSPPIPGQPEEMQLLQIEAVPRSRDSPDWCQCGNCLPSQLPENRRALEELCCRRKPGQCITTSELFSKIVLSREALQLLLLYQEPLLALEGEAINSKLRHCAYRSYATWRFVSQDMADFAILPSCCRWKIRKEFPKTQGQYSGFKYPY
Source text: (§1) Human embryonic kidney (HEK) 293 cells stably expressing C-terminally EE-tagged human or rat P2X7R [42], [34], human P2X4R [15] and rat P2X3R [28] were generated in previous studies. A stable HEK293 cell line expressing C-terminally His-tagged human P2X7R was generated in this study and there was no difference in the experimental results using EE-tagged and His-tagged human P2X7R. These cells were maintained in Dulbecco’s Modified Eagle Medium (Life Technologies) supplemented with 10% foetal bovine serum and […] G418 in a tissue culture incubator at 37°C and 5% CO2 under humidified conditions. Cells were cultured in T25 flasks and split (every 3–4 days) once confluent.
(§2) FlexStation II and III (Molecular Devices) were used to measure intracellular Ca^2+ concentrations ([Ca^2+]i). Human or rat P2X7R-expressing HEK293 cells were plated in poly-D-lysine-coated 96-well plates (Molecular Devices) with 50,000 cells per well 24 h prior to use. […] Cells were excited at 340 nm and 380 nm alternatively and the emission at 510 nm recorded using a FlexStation. The ratio of fluorescence intensity (F340/F380) was used to indicate the [Ca^2+]i. The basal [Ca^2+]i was recorded for 60 s prior to the exposure to agonist and recording was continued for a further 120 s. […] The maximal changes in F340/F380 (ΔF340/380) were used for quantitative analysis.

hP2X7R [2] = biological target: T1, hP2X7R; assay: BzATP-induced Ca2+ responses in HEK293 cells expressing hP2X7R (FlexStation, Fura-2); type: cell-based; conditions: 300 μM BzATP
Source text: as §1
as §2, with “analysis. […]” for “analysis.”

SMILES | predicted energy binding score (hP2X7R [1]) [kcal/mol] | inhibition of BzATP-induced Ca^2+ responses (rP2X7R) (rP2X7R; 200 nM AZ11645373 (Fig. 1 legend), compared with BBG) | inhibition of BzATP-induced Ca^2+ responses (hP2X7R) (hP2X7R [2]; 200 nM AZ11645373 (Fig. 1 legend)) [%] | inhibition of BzATP-induced Ca^2+ responses (rP2X7R) (rP2X7R; compound at 10 μM) | inhibition at 10 µM (hP2X7R [2]; HEK293, compound at 10 μM, read-out: inhibition of BzATP-induced Ca^2+ responses (hP2X7R)) [%]
O=C1CSC(=O)N1C(CCc1ccncc1)COc1ccc(-c2cccc([N+](=O)[O-])c2)cc1 (stereo not shown) [AZ11645373] | -10.8 | far less effective | 81.9 ± 5 |  | 
CCOc1ccc(Nc2ccc(/C(=C3C=C/C(=[N+](/CC)Cc4cccc(S(=O)(=O)[O-])c4)C=C/3C)c3ccc(N(CC)Cc4cccc(S(=O)(=O)O)c4)cc3C)cc2)cc1 [BBG, brilliant blue G] |  |  |  | strongly inhibited | 71.5 ± 5
CN([C@@H](Cc1ccc(OS(=O)(=O)c2cccc3cnccc23)cc1)C(=O)N1CCN(c2ccccc2)CC1)S(=O)(=O)c1cccc2cnccc12 [KN-62] | -5.2 |  |  |  | 
C[S+]([O-])c1ccc(-c2nc(-c3ccncc3)c(-c3ccc(F)cc3)[nH]2)cc1 (stereo not shown) [SB203580] | -8.75 |  |  |  | 
